Here are results for one compound from patent publication US9616065B2, “Compositions useful in treating brain-related diseases or disorders and methods using same” (priority 2013, dated 2017).

By Ki is commonly meant the equilibrium dissociation constant of an inhibitor or competing ligand from its target.

The subject of one experiment is mSERT mutant YETQ-L563V. The experiment is described as follows: Substrate-elicited efflux, mSERT mutant YETQ-L563V. The class given is cell-based, mouse. As to conditions: up to highest testable concentration. The method, then:
Efflux is terminated by collecting the supernatant. Both cells and supernatant are counted by liquid scintillation counting. Efflux is calculated as ratio of supernatant over supernatant and cells.

A further experiment addresses SmSERT (Schistosoma mansoni, UniProt Q3I1M7). The experiment is described as follows: Transport inhibition constants, SmSERT. The format is cell-based.
Experiment [1] deals with T1, hSERT 112C mutant (N112C) (Homo sapiens, UniProt P31645, N112C).
T1 construct: The templates were full-length and nontagged human SERT in pcdna3.1; expressed in transfected cells; host or cells: COS-7 (efflux)
The experiment is described as follows: MDMA-elicited [3H]-serotonin efflux in COS-7 cells, 112C mutant. The class given is cell-based. As to conditions: N112C; dose-response experiment with MDMA. The method, then:
COS-7 cells were maintained under the same conditions as above. Efflux experiments were performed 2 days after cell transfection with hSERT or empty vector and plating of the cells in 24-well plates. Cells were washed with room temperature PBS-CM and then loaded with 50 nM [^3H]-serotonin for 1 h. After preloading, cells were washed twice with buffer and then incubated for 10 min with or without substrates at room temperature. After incubation, the supernatant was collected, liquid scintillation fluid added, and the samples counted (Beckman LS-6500 Multi-purpose Scintillation Counter; Beckman Coulter, Brea, Calif.). The cells were solubilized in a solution of 0.1% sodium dodecyl sulfate and 0.1 M NaOH; liquid scintillation fluid was added and tubes were counted as above. All assays were done in quadruplicate.
The percentage of [^3H]-serotonin efflux among different treatments was calculated by adding counts of supernatant plus cell lysis, with the supernatant counts then divided by the total and multiplied by 100 to yield the percentage of efflux.

The target of a further experiment is T2, SERT (Homo sapiens, UniProt P31645).
T2 construct: The templates were full-length and nontagged human SERT in pcdna3.1; expressed in transfected cells; host or cells: COS-7, HEK293 or MDCK (uptake); COS-7 (efflux)
Kind of experiment: cell-based. The method, then: COS-7, HEK293, and MDCK cells were maintained in Dulbecco modified Eagle medium (3.5 g/l glucose) supplemented with FBS (10% each) at 37° C. with 5% CO2. Uptake experiments were performed 2 days after transfecting DNAs (hSERT, human dopamine transporter [hDAT], chimeras or mutants, or empty vector for background) with TransIT-LT1 (Minis Bio LLC, Madison, Wis., USA) transfection reagent and plating the cells in 24- or 96-well plates.
The uptake was allowed to continue for 10 min at room temperature and was terminated by washing with PBS-CM. […] Vmax and KM are given as mean±S.D. of three independent experiments. […] EC50 values are given as mean±S.E.M. of at least five independent experiments. Statistical significance between vehicle and drug treatments was assessed using Student t-test or one-way analysis of variance (ANOVA) Dunnett's multiple-comparison test (p<0.05).

SmSERT, sequence (Q3I1M7 entry or part of it): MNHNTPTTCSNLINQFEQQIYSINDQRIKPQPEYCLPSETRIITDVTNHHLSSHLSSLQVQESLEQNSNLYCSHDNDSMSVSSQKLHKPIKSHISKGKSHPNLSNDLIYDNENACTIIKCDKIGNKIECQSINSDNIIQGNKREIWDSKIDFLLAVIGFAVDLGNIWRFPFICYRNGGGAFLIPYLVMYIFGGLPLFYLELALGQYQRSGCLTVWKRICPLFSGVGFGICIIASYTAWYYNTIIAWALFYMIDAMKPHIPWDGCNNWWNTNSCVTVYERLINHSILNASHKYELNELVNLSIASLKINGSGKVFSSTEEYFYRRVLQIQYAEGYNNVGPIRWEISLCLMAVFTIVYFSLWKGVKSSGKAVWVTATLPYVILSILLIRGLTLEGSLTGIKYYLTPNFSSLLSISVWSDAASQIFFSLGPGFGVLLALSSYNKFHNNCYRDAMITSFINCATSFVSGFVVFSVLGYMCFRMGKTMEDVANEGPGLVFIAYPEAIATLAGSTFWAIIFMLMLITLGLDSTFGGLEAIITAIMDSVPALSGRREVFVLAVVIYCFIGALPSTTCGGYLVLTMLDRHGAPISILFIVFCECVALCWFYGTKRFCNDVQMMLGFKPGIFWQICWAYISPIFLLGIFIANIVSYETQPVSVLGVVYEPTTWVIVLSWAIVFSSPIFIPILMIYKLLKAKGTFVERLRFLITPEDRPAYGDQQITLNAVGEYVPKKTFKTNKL

`CNC(C)Cc1ccc2c(c1)OCO2` (racemic) [(±)MDMA, methylenedioxy-methamphetamine]: the “reversal of transport (efflux)” value in the experiment on mSERT mutant YETQ-L563V is “did not elicit any significant reversal of transport”. In addition, the Ki on SmSERT was 313 ± 159 µM; at SERT, 2.7 ± 0.5 µM. Moreover, the “affinity for MDMA of mutant versus wild-type” value in experiment [1] is listed as “reduced by fivefold”.
